In this test the test system is San Carlos virus. The experiment in a line: Dimethylphenols against San Carlos virus in tissue culture (human embryonic lung), CPE. The class given is cell-based, San Carlos virus (adenovirus). Conditions: for CPE with TCID50 doses of San Carlos virus: human embryonic lung, 100 TCID50; for anti-viral activity against San Carlos virus: at various concentrations.

Results on four compounds are retold here after patent publication US4084006A, “Method of using dialkylphenols an antiviral agents” (priority 1977, dated 1978).

With `Cc1ccc(O)cc1C` [3,4-dimethylphenol, reference compound], the “CPE with TCID50 doses of San Carlos virus” value (from here on “CPE with TCID50 doses”) is, setting by setting: (10^-6 grams 2X) 2+ (50% of cells infected with selected virus); (10^-7 grams 2X) 1+ (25% of cells infected with selected virus); (10^-8 grams 2X) 1+ (25% of cells infected with selected virus); (10^-9 grams 2X) 1+ (25% of cells infected with selected virus); (10^-10 grams 2X) 2+ (50% of cells infected with selected virus); (10^-11 grams 2X) 2+ (50% of cells infected with selected virus). Besides, the “CPE with TCID50 doses” value by setting is: (10^-12 grams 2X) 1+ (25% of cells infected with selected virus); (10^-13 grams 2X) 2+ (50% of cells infected with selected virus); (10^-14 grams 2X) 2+ (50% of cells infected with selected virus); (10^-15 grams 2X) 1+ (25% of cells infected with selected virus).
For `Cc1cccc(C)c1O` [2,6-dimethylphenol], the “anti-viral activity against San Carlos virus” value (“anti-viral activity” for short) was “exhibit anti-viral activity”. Moreover, where the note is “10^-6 grams 2X”, the “CPE with TCID50 doses” value was 2+ (50% of cells infected with selected virus). The “CPE with TCID50 doses” value (10^-7 grams 2X) is reported as 2+ (50% of cells infected with selected virus). Besides, the “CPE with TCID50 doses” value (10^-8 grams 2X) was 1+ (25% of cells infected with selected virus). In addition, the “CPE with TCID50 doses” value (10^-9 grams 2X) was 2+ (50% of cells infected with selected virus). Besides, under “10^-10 grams 2X”, the “CPE with TCID50 doses” value is on record as 1+ (25% of cells infected with selected virus). In addition, the “CPE with TCID50 doses” value (10^-11 grams 2X) is 3+ (75% of cells infected with selected virus). The “CPE with TCID50 doses” value (10^-12 grams 2X) is 2+ (50% of cells infected with selected virus). Moreover, under “10^-13 grams 2X”, the “CPE with TCID50 doses” value is recorded as 2+ (50% of cells infected with selected virus). In addition, the “CPE with TCID50 doses” value (10^-14 grams 2X) is 1+ (25% of cells infected with selected virus). Besides, for the setting “10^-15 grams 2X”, the “CPE with TCID50 doses” value is recorded as 1+ (25% of cells infected with selected virus).
As for `Cc1ccc(C)c(O)c1` [2,5-dimethylphenol], the “anti-viral activity” value is recorded as “exhibit anti-viral activity”. Also, where the note is “10^-6 grams 2X”, the “CPE with TCID50 doses” value was 3+ (75% of cells infected with selected virus). The “CPE with TCID50 doses” value (10^-7 grams 2X) is given as 2+ (50% of cells infected with selected virus). The “CPE with TCID50 doses” value (10^-8 grams 2X) is recorded as 1+ (25% of cells infected with selected virus). The “CPE with TCID50 doses” value (10^-9 grams 2X) was “± (less than 10% infected)”. In addition, the “CPE with TCID50 doses” value (10^-10 grams 2X) was 1+ (25% of cells infected with selected virus). Besides, where the note is “10^-11 grams 2X”, the “CPE with TCID50 doses” value was 1+ (25% of cells infected with selected virus). Moreover, under “10^-12 grams 2X”, the “CPE with TCID50 doses” value was “± (less than 10% infected)”. Besides, the “CPE with TCID50 doses” value (10^-13 grams 2X) is “± (less than 10% infected)”. For the same compound, for the setting “10^-14 grams 2X”, the “CPE with TCID50 doses” value is recorded as “± (less than 10% infected)”. Where the note is “10^-15 grams 2X”, the “CPE with TCID50 doses” value is reported as 2+ (50% of cells infected with selected virus).
With `Cc1cccc(O)c1C` [2,3-dimethylphenol], the “anti-viral activity” value is reported as “exhibit anti-viral activity”. Under “10^-6 grams 2X”, the “CPE with TCID50 doses” value is listed as 3+ (75% of cells infected with selected virus). Further, the “CPE with TCID50 doses” value (10^-7 grams 2X) is reported as 2+ (50% of cells infected with selected virus). In addition, the “CPE with TCID50 doses” value (10^-8 grams 2X) is 2+ (50% of cells infected with selected virus). Besides, where the note is “10^-9 grams 2X”, the “CPE with TCID50 doses” value is reported as 1+ (25% of cells infected with selected virus). Moreover, the “CPE with TCID50 doses” value (10^-10 grams 2X) is reported as 1+ (25% of cells infected with selected virus). For the same compound, the “CPE with TCID50 doses” value (10^-11 grams 2X) was 1+ (25% of cells infected with selected virus). Further, the “CPE with TCID50 doses” value (10^-12 grams 2X) was 2+ (50% of cells infected with selected virus). The “CPE with TCID50 doses” value (10^-13 grams 2X) was 1+ (25% of cells infected with selected virus). For the same compound, the “CPE with TCID50 doses” value (10^-14 grams 2X) is reported as 2+ (50% of cells infected with selected virus). Also, the “CPE with TCID50 doses” value (10^-15 grams 2X) was 2+ (50% of cells infected with selected virus).
